This note sets out measurements from US9353072B2, “Antimicrobial substituted thiazoles and methods of use” (Purdue Research Foundation, priority 2012, dated 2016).

The subject of data set [1] is MRSA ATCC 700699 (NRS1, VISA). Kind of data set: MIC/MBC broth microdilution, NRS1 (ATCC 700699). The class given is cell-based. Conditions: Staphylococcus aureus. On the procedure:
(§1) Determination of minimum inhibitory concentration (MIC). The MICs of the lead thiazole compound (compound 1a) and nine derivatives tested against all 18 MRSA strains were determined, in triplicate samples, using the broth microdilution method in accordance with the recommendations contained in the CLSI guidelines.

Another data set has as its system MRSA USA400 (NRS123). Kind of data set: MIC/MBC broth microdilution, NRS123 (USA400). The class given is cell-based. Conditions: Staphylococcus aureus. On the procedure:
as §1
A general note: In broth dilution the organism is exposed to a series of concentrations in liquid medium.

Another data set has as its system VISA LIM 3 (NRS37). Kind of data set: MIC/MBC broth microdilution, NRS37 (VISA LIM 3). The class given is cell-based. Conditions: Staphylococcus aureus. On the procedure:
as §1

The next data set deals with MRSA USA500 (NRS385). In words: MIC/MBC broth microdilution, NRS385 (USA500). The class given is cell-based. Conditions: Staphylococcus aureus. On the procedure: as §1
The subject of a further data set is MRSA USA800. In words: MIC broth microdilution, MRSA USA800. Conditions: Staphylococcus aureus, Table 2, read-out: Minimum Inhibitory Concentration. The class given is cell-based. On the procedure: as §1
The next data set has as its system MRSA USA100. Kind of data set: MIC broth microdilution, MRSA USA100. The class given is cell-based. The settings on record: Staphylococcus aureus; Table 2; MRSA USA100; read-out: Minimum Inhibitory Concentration. On the procedure: as §1
The test system of the next data set is NRS119. In words: MIC/MBC broth microdilution, NRS119. The class given is cell-based. Conditions: Staphylococcus aureus. On the procedure: as §1
In another data set the test system is MRSA USA200. Kind of data set: MIC broth microdilution, MRSA USA200. The class given is cell-based. The settings on record: Staphylococcus aureus; Table 2; MRSA USA200; read-out: Minimum Inhibitory Concentration. On the procedure:
as §1

In a further data set the test system is MRSA NRS384 (USA300). Kind of data set: MIC/MBC broth microdilution, NRS384 (USA300). The settings on record: Staphylococcus aureus. The class given is cell-based. On the procedure:
as §1

In a further data set the test system is VISA HIP07256 (NRS19). Kind of data set: MIC/MBC broth microdilution, NRS19 (VISA HIP07256). The settings on record: Staphylococcus aureus. The class given is cell-based. On the procedure:
as §1

Data set [2] deals with murine macrophage cells (J774.A1). In words: In vitro cytotoxicity analysis, MTS assay. The class given is cell-based. Conditions: 16 μM, 24 hours. On the procedure:
In vitro cytotoxicity analysis: Compounds were assayed at concentrations of 2 μM, 4 μM, 8 μM, and 16 μM against a macrophage cell line (J774.A1) to determine the potential toxic effect in vitro. Murine macrophage cells were cultured in Dulbeco's Modified Eagle Medium (Sigma-Aldrich, St. Louis, Mo., USA) with 10% Fetal Bovine Serum (USA Scientific, Inc.) at 37° C. with 5% CO2. Controls received DMSO alone at a concentration equal to that in drug-treated cell samples. The cells were incubated with the compounds in a 96-Well Plate at 37° C. and 5.0% CO2 for 24 hours prior to addition of the assay reagent MTS 3-(4,5-dimethylthiazol-2-yl)-5-(3-carboxymethoxyphenyl)-2-(4-sulfophenyl)-2H-tetrazolium) (Promega, Madison, Wis., USA). The reagent measures the succinate dehydrogenase mitochondrial activity as an indicator of cell viability and proliferation. Corrected absorbance readings (actual absorbance readings for each treatment subtracted from background absorbance) were taken using a kinetic ELISA microplate reader (Molecular Devices, Sunnyvale, Calif., USA). The quantity of viable cells after treatment with each compound was expressed as a percentage of the control, DMSO.

Another data set concerns MRSA ATCC 43300. In words: MIC/MBC broth microdilution, MRSA ATCC 43300. The class given is cell-based, Staphylococcus aureus. The settings on record: Staphylococcus aureus. On the procedure: as §1
The next data set concerns NRS107. Kind of data set: MIC/MBC broth microdilution, NRS107. The class given is cell-based. Conditions: Staphylococcus aureus. On the procedure: as §1
Another data set concerns VRSA (VRS10). Kind of data set: MIC/MBC broth microdilution, VRSA (VRS10). Conditions: Staphylococcus aureus, Table 7, VRSA (VRS10). The class given is cell-based, Staphylococcus aureus. On the procedure: as §1
The test system of a further data set is NRS194. Kind of data set: MIC/MBC broth microdilution, NRS194. The class given is cell-based. The settings on record: Staphylococcus aureus. On the procedure:
as §1

In brackets after ≈: the same amount, converted by molar mass. Entries after “also recorded” stand apart in the source; their conditions may differ. Like-named read-outs stand apart in the source and are kept apart here.

`CCCc1ccc(-c2nc(C)c(/C(C)=N/NC(=N)N)s2)cc1` [Compound 1c, 2-{1-[4-Methyl-2-(4-propylphenyl)thiazol-5-yl]ethylidene}hydrazinecarboximidamide]: the MIC in [1] (Table 2, MRSA ATCC 700699, read-out: Minimum Inhibitory Concentration) worked out at 2.3 µg/mL; in the data set with MRSA USA400 (NRS123) (Table 2, MRSA USA400, read-out: Minimum Inhibitory Concentration) it was 1.2 µg/mL; with VISA LIM 3 (NRS37) (Table 2, VISA LIM 3, read-out: Minimum Inhibitory Concentration), 1.2 µg/mL; in the data set with MRSA USA500 (NRS385) (Table 2, MRSA USA500, read-out: Minimum Inhibitory Concentration), 2.3 µg/mL; in the data set on MRSA USA800 it was 2.3 µg/mL (≈ 7.29 µM); with MRSA USA100, 1.2 µg/mL (≈ 3.8 µM). Besides, the MIC in the data set on NRS119 (Table 2, NRS119, read-out: Minimum Inhibitory Concentration) worked out at 2.3 µg/mL; in the data set with MRSA USA200 it was 2.3 µg/mL (≈ 7.29 µM); with MRSA NRS384 (USA300) (Table 2, MRSA USA300, read-out: Minimum Inhibitory Concentration), 1.2 µg/mL; with VISA HIP07256 (NRS19) (Table 2, VISA HIP07256, read-out: Minimum Inhibitory Concentration) it was 2.3 µg/mL. The “toxicity toward murine macrophage cells” value in data set [2] was “exhibited toxicity; also recorded: toxic”.
For the compound `C/C(=N/NC(=N)N)c1sc(-c2ccc(-c3cccc4ccccc34)cc2)nc1C` [Compound M14], the MBC in data set [1] (Table 7, VISA (NRS1), read-out: Minimum Bactericidal Concentration) was determined as 4 µM (≈ 1.6 µg/mL); in data set [1] (Table 8, NRS1 (VISA), read-out: MBC), 4 µM (≈ 1.6 µg/mL); in the data set with MRSA USA400 (NRS123) (Table 8, NRS123, read-out: MBC), 4 µM (≈ 1.6 µg/mL); in the data set with MRSA ATCC 43300 (Table 6, MRSA ATCC 43300, plating on TSA, 20 hour incubation, read-out: MBC) it was 8 µM (≈ 3.2 µg/mL); in the data set on MRSA ATCC 43300 (Table 7, MRSA (ATCC 43300), read-out: Minimum Bactericidal Concentration) it was 16 µM (≈ 6.39 µg/mL); in the data set with MRSA ATCC 43300 (Table 8, ATCC 43300, read-out: MBC), 4 µM (≈ 1.6 µg/mL). Further, the MBC with VISA LIM 3 (NRS37) (Table 8, NRS37 (VISA), read-out: MBC) was found to be 4 µM (≈ 1.6 µg/mL); with NRS107 (Table 8, read-out: MBC), 4 µM (≈ 1.6 µg/mL); in the data set on MRSA USA500 (NRS385) (Table 8, NRS385, read-out: MBC) it was 8 µM (≈ 3.2 µg/mL); in the data set on VRSA (VRS10) (read-out: Minimum Bactericidal Concentration), 8 µM (≈ 3.2 µg/mL); in the data set with NRS119 (NRS 119 / VISA, Table 7, VISA (NRS119), read-out: Minimum Bactericidal Concentration), 16 µM (≈ 6.39 µg/mL); in the data set on NRS119 (Table 8, NRS119, read-out: MBC), 4 µM (≈ 1.6 µg/mL). For the same compound, the MBC with MRSA NRS384 (USA300) (Table 8, NRS384, read-out: MBC) was 4 µM (≈ 1.6 µg/mL); in the data set with VISA HIP07256 (NRS19) (Table 8, NRS19 (VISA), read-out: MBC) it was 4 µM (≈ 1.6 µg/mL); in the data set on NRS194 (Table 8, read-out: MBC) it was 4 µM (≈ 1.6 µg/mL). Further, the MIC stood at 2 µM in [1] (Table 7, VISA (NRS1), read-out: Minimum Inhibitory Concentration); 4 µM in data set [1] (Table 8, NRS1 (VISA), triplicates, 20 hours, read-out: MIC); 4 µM with MRSA USA400 (NRS123) (Table 8, NRS123, read-out: MIC); 4 µM (≈ 1.6 µg/mL) in the data set on MRSA ATCC 43300 (Table 6, MRSA ATCC 43300, 128 μM down to 1.0 μM, 20 hours, read-out: MIC); 8 µM (≈ 3.2 µg/mL) in the data set with MRSA ATCC 43300 (Table 7, MRSA (ATCC 43300), read-out: Minimum Inhibitory Concentration); 4 µM (≈ 1.6 µg/mL) in the data set on MRSA ATCC 43300 (Table 8, ATCC 43300, read-out: MIC). For the same compound, the MIC in the data set with VISA LIM 3 (NRS37) (Table 8, NRS37 (VISA), read-out: MIC) is 4 µM; with NRS107 (Table 8, read-out: MIC), 4 µM (≈ 1.6 µg/mL); with MRSA USA500 (NRS385) (Table 8, NRS385, read-out: MIC), 4 µM; in the data set with VRSA (VRS10) (read-out: Minimum Inhibitory Concentration), 8 µM (≈ 3.2 µg/mL); in the data set with NRS119 (NRS 119 / VISA, Table 7, VISA (NRS119), read-out: Minimum Inhibitory Concentration), 4 µM; in the data set on NRS119 (Table 8, NRS119, read-out: MIC), 4 µM. Besides, the MIC in the data set on MRSA NRS384 (USA300) (Table 8, NRS384, read-out: MIC) was determined as 4 µM; in the data set on VISA HIP07256 (NRS19) (Table 8, NRS19 (VISA), read-out: MIC), 4 µM; in the data set on NRS194 (Table 8, read-out: MIC) it was 4 µM (≈ 1.6 µg/mL).
